Experimental data: patent US11911408B2, “Synergistic formulations of adenosine receptor modulating agents and anticholinergics” (UNIVERSITY OF ALASKA FAIRBANKS, priority 2021, dated 2024)
“Also recorded” adds a separate entry of the source.

How the values were obtained:
Sprague-Dawley rats [1] = assay: 8-SPT dose determination (IV): atropine and 8-SPT bolus before CHA loading dose and infusion, 4° C. cooled surface; assay type: in vivo, rat; conditions: Atropine 1 mg/kg and SPT 10, 15 or 25 mg/kg (all doses) 15 min before CHA 1 mg/kg bolus, 0.25 mg/(kg·h) IV; n=5
Procedure: To define the dose-response relationship between 8-SPT combined with a constant concentration of atropine and CHA, three drug treatment combinations with varying doses of 8-SPT were tested. […] One hour of baseline data (body temperature, blood pressure, heart rate, and metabolism) were acquired before treatment. Rats received IV bolus of Atropine and 8-SPT 15 minutes before CHA. An IV loading dose of CHA was administered followed by a two hour continuous infusion of CHA. Rats were placed on a 4° C. cooled surface (previously described Laughlin et al). Surface temperature was manually adjusted to prevent body temperature from falling below 32° C.
Rats were placed inside a 12″×12″ clear acrylic box without bedding sitting on top of a custom built, aluminum hydronic surface. The aluminum surface was part of a cooling and heating system controlled by a thermostat in which circulating water was heated or cooled via thermoelectric Peltier plates and pumped through the aluminum cage floor. […] Food and water was provided ad libitum.

Sprague-Dawley rats [2] = assay: Minimizing hemodynamic effects: antagonist pretreatments before IP CHA/CPA, rats on 4° C. cooled surface
Procedure: Fifteen different treatment combinations were administered to five male Sprague-Dawley rats with an average age of 314±88 days and weight of 453±44 g (mean±SD) in a modified cross over design as shown in Table 1). […] A washout period of at least one week was allowed between treatments. One hour of baseline data (body temperature, blood pressure, heart rate, and metabolism) was acquired before treatment. Rats received either a single IP injection of CHA or were pre-treated with antagonists 15 or 30 minutes prior to CHA drugs and were then placed on a 4° C. cooled surface (previously described Laughlin et al; herein incorporated by reference). Surface temperature was manually adjusted to prevent body temperature from falling below 32° C.
The pressure transducer was cannulated into the descending abdominal aorta.
Rats were placed inside a 12″×12″ clear acrylic box without bedding sitting on top of a custom built, aluminum hydronic surface. The aluminum surface was part of a cooling and heating system controlled by a thermostat in which circulating water was heated or cooled via thermoelectric Peltier plates and pumped through the aluminum cage floor. […] Food and water was provided ad libitum. The vascular access button was attached to a tether and swivel (Instech, VAHD115T, 375/D/22, Plymouth Meeting, Pa.) connected to a counter balance arm to provide freedom of movement.

[3] = 8-SPT 25 mg/kg 15 min before CHA (S15C), n=4-5
[4] = 8-SPT 25 mg/kg administered 30 min after CHA 1 mg/kg, n=4-5

## Cn1c(=O)c2[nH]c(-c3ccc(S(=O)(=O)O)cc3)nc2n(C)c1=O [8-SPT, 8-(p-sulfophenyl) theophylline]
Sprague-Dawley rats [1]
  CHA induced hypotension: effectively blocked
Sprague-Dawley rats [2]; [3]
  effect on heart rate compared to CHA 1 mg/kg alone: minimal effect
  effect on mean arterial pressure compared to CHA 1 mg/kg alone: minimal effect
Sprague-Dawley rats [2]; [4]
  core body temperature: increased significantly
  heart rate: increased significantly
  mean arterial pressure: increased significantly
  oxygen consumption: increased significantly
Sprague-Dawley rats [2]; 8-SPT 25 mg/kg alone 15 min before CHA 1 mg/kg (S15C), n=3-5
  prevention of CHA induced hypotension: not sufficient
Sprague-Dawley rats [2]; 8-SPT alone (pretreatment), dose not stated
  prevention of the initial drop in blood pressure or heart rate (hypotension) immediately following CHA administration: cannot prevent; also recorded: not sufficient
Sprague-Dawley rats [2]; 8-SPT alone, after metabolic suppression is stabilized
  increase of blood pressure: sufficient

## CN1C2CCC1CC(OC(=O)C(CO)c1ccccc1)C2 (centres unmarked) [Atropine, atropine]
Sprague-Dawley rats [2]; rat, in vivo
  prevention of CHA induced hypotension: not sufficient; also recorded: does not prevent

## OC[C@H]1O[C@@H](n2cnc3c(NC4CCCCC4)ncnc32)[C@H](O)[C@@H]1O [CHA, N6-Cyclohexyladenosine]
Sprague-Dawley rats [2]; 1 mg/kg at time point zero, n=4-5
  blood pressure effect of the agonist alone: hypotension

## CN(C)CCOC(c1ccccc1)c1ccccc1 [diphenhydramine]
Sprague-Dawley rats [2]; diphenhydramine 4 mg/kg alone 30 min before CHA 1 mg/kg (D30C), n=3-5
  prevention of hypotension: not sufficient

## CC(C)NCC(O)COc1cccc2ccccc12 (centres unmarked) [propranolol]
Sprague-Dawley rats [2]; propranolol 4 mg/kg alone 15 min before CHA 1 mg/kg (P15C), n=3-5
  prevention of hypotension: not sufficient
